Laboratory results published in patent publication US10758519B2, “UCP-1 expression promoter” (Kao Corporation, priority 2014, dated 2020).
Marks after values point to notes of the source that are not given here.

How the values were obtained:
[1] = system: UCP-1; assay: UCP-1 expression-inducing action in rat preadipocytes (quantitative PCR), Example B1; type: cell-based
Procedure: The abdominal subcutaneous fat tissues of a Wistar-rat (male, 8 weeks old) were chopped with a surgical knife in a collagenase buffer (0.05% collagenase+4% BSA in Hank's buffer), and then, the chopped tissues were incubated at 37° C. for 15 minutes while shaken. After addition of an appropriate amount of a medium (high glucose DMEM (Invitrogen Corp.)+10% fetal, bovine serum (FBS) (AusGeneX PTY LTD.)+100 units/mL penicillin+[…] streptomycin (Invitrogen Corp.)), the obtained cell suspension was centrifuged at 1,000 rpm for 5 minutes. The supernatant was removed to obtain pellets (SVF: stromal vascular fraction). The SVF was suspended in a DMEM (+10% FBS+penicillin+streptomycin) medium, inoculated to a T-175 flask, cultured for 4 days, and used as preadipocytes.
The preadipocytes were inoculated to a 12-well plate coated with type I collagen. On the next day, the PPARγ activator (rosiglitazone (Rosi) (Wako Pure Chemical Industries, Ltd.), final concentration: 1 μM) and/or the Smad3 inhibitor (SIS3 (Sigma-Aldrich Corp.), final concentration: 10 μM) was added thereto. After culture for 7 days, the β3 adrenaline receptor activator (norepinephrine (NE) (Wako Pure Chemical Industries, Ltd.), final concentration: 1 μM)) was added thereto, and the cells were cultured for 2 hours, then washed with PBS, and recovered.
Total RNA was extracted according to a standard method using RNeasy Mini Kit (Qiagen N.V.). The total RNA was reverse-transcribed according to a standard method using High Capacity RNA-to-cDNA Kit (Applied Biosystems by Life Technologies).
Quantitative PCR was performed with the obtained cDNA (30 ng/well) as a template using 7500 Fast Real-Time PCR System (Applied Biosystems by Life Technologies). The expression level of each gene was corrected with a 36B4 gene expression level as an internal standard. Control excluded the agents described above.
(§1) The preadipocytes (n=3) obtained as described above were inoculated to a 12-well plate coated with type I collagen. On the next day, the PPARγ activator (rosiglitazone (Rosi) (Wako Pure Chemical Industries, Ltd.) or pioglitazone (Wako Pure Chemical Industries, Ltd.); 1 μM) and the Smad3 inhibitor (SIS3 (Sigma-Aldrich Corp.), 10 μM) were added thereto. After culture for 7 days, the cells were treated with the β3 adrenaline receptor activator (norepinephrine (Wako Pure Chemical Industries, Ltd.), 1 μM) for 2 hours and then recovered.
The preadipocytes were collected by trypsin treatment and transfected with siRNA against each Smad by electroporation using Neon transfection System. (Invitrogen Corp.). The preadipocytes (3×10^5 cells) were transfected with 50 pmol of the siRNA (Life Technologies) under conditions of 1150 V/20 ms/3 pulses, suspended in a DMEM (+10% FBS+100 units/mL penicillin+[…] streptomycin) medium, and then inoculated to a 12-well plate coated with type I collagen. After 6 hours, rosiglitazone was added thereto, and the cells were cultured with the medium replaced with fresh one every day. Four days after the inoculation, the cells were treated with norepinephrine for 2 hours and then recovered, and the UCP-1 expression level was analyzed by using RT-PCR. For a control, rosiglitazone, SIS3, and norepinephrine were added in the same approach as above to cells transfected with random siRNA, followed by analysis.
as §1, with “Ltd.), 10” for “Ltd.) or pioglitazone (Wako Pure Chemical Industries, Ltd.); 1”, “Corp.) or SB431542 (Sigma-Aldrich Corp.);” for “Corp.),”
The preadipocytes (n=3) were inoculated to a 12-well plate coated with type I collagen. […]

[2] = target: T1, human TGR5 (Homo sapiens, UniProt Q8TDU6); assay: TGR5-activating action, CRE luciferase reporter in HEK293 cells, Reference Example 3; type: cell-based; details: material 0.001%, 12 to 18 hours; relative to control defined as 1; FIG. 22
T1 construct: expressed in transfected cells; host or cells: HEK293
T1 sequence (Q8TDU6 1-330): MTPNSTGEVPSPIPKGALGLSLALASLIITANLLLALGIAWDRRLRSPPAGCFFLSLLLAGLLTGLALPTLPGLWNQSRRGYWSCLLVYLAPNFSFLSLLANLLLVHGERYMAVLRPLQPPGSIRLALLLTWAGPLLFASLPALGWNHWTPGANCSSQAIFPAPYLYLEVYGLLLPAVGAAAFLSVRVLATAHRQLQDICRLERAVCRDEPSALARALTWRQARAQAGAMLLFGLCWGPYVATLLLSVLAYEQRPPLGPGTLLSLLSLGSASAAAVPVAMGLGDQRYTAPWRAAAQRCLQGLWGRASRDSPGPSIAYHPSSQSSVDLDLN
Procedure: HEK293 cells were inoculated at 1.0×10^5 cells/well to a 24-well plate and cultured in a DMEM medium containing 5% charcoal-treated FBS for 1 day. Then, the cells were transfected with 200 ng/well of a firefly luciferase reporter vector pGL4.29[luc2P/CRE/Hygro](Promega Corp.) containing a cAMP-responsive element (CRE), 40 ng/well of a human TGR5 expression vector hTGR5 (pcDNA3.1+), and 80 ng/well of phRL-TK (Renilla luciferase vector for gene, transfection efficiency correction) using Superfect transfection reagent (Qiagen N.V.). After 3 hours, the medium was replaced with a DMEM medium containing 5% charcoal-treated […]. After another 4 hours, each material shown in Table 4 below was added thereto at a final concentration of 0.001%. 12 to 18 hours thereafter, the luciferase activities were measured using DualGlo luciferase assay system (Promega Corp.). The TGR5-activating action was evaluated by correcting the firefly luciferase activity with the Renilla luciferase activity. The TGR5-activating action was indicated by relative values to the TGR5 activity in a control defined as 1.

[3] = system: Smad3; assay: TGF-β stimulation-responsive Smad3 phosphorylation in HEK293 cells (Western blotting), Reference Example 1; type: cell-based; details: material 0.002% (luteolin 2 μM) or 0.01% (luteolin 10 μM), 2 hours, then 0.03 μg/mL TGF-β 20 minutes, FIG. 20
Procedure: HEK293 cells were inoculated at 3×10^5 cells/well to a 6-well dish and cultured overnight in DMEM containing 5% charcoal-treated FBS. On the next day, the medium was replaced with serum-free DMEM supplemented with each material shown in Table 2 below at a final concentration of 0.002% (luteolin: 2 μM) (low-concentration sample) or a final concentration of 0.01% (luteolin: 10 μM) (high-concentration sample). After 2 hours, 0.03 μg/mL TGF-β was added to each well, and the cells were incubated for 20 minutes. After removal of the medium, the resulting cells were washed with PBS and then recovered. The recovered cells were added with Lysis buffer and well homogenized. The cells were left to stand for 15 minutes on ice and then ultrasonically disrupted, and a supernatant centrifuged at 12,000 rpm at 4° C. for 10 minutes was obtained as a protein solution. A prepared sample containing […] of the protein and a ¼ volume of 4×SDS Sample buffer (Novagen) per lane was thermally denatured at 95° C. for 5 minutes and then used in SDS-PAGE. The protein was transferred to Immun-Blot™ PVDF Membrane (Bio-Red Laboratories, Inc.) and subjected to blocking and antibody reaction by the procedures given below, and α-Tubulin and Smad3 were detected together using ECL prime western blotting detection system (Amersham plc). […]

[4] = Blood (serum) analysis, Example B6; type: in vivo, mouse; details: 14th day after operation, high-fat diet
Procedure: Each C57BL/6J (SLC, male, 7 weeks old) was allowed to freely eat High-Fat Diets with 60 cal % Fat (Research Diets, Inc.) and freely drink tap water. The body weight was measured every week. After 10 weeks, the mice were divided into 4 groups such that the average body weight was equivalent among the groups (n=8). The breeding environment was set to room temperature of 23±2° C., a humidity of 55±10%, and a light period of 7 a.m. to 7 p.m.
A 1/13 diluted solution of Somnopentyl was intraperitoneally administered at 10 mL/kg body weight, and then, an analgesic pentazocine was subcutaneously injected at 1 mg/kg body weight. After shaving of the back, an osmotic pump Alzet (DURECT Corp.) filled with the agents given below was implanted to thereby continuously administer the agents.
Group 2: PPARγ activator (rosiglitazone (Rosi); 5 mg/kg body weight/day)+Smad3 inhibitor (SIS3; 5 mg/kg body weight/day)
Group 3; β3 adrenaline receptor activator (CL316,243; 0.1 mg/kg body weight/day)
Group 4; PPARγ activator (rosiglitazone (Rosi); 5 mg/kg body weight/day)+Smad3 inhibitor (SIS3; 5 mg/kg body weight/day)+β3 adrenaline receptor activator (CL316,243; 0.1 mg/kg body weight/day)
Anatomy was performed on the 14th day after the operation. Blood was collected from the abdominal vena cava under isoflurane anesthesia. Then, each tissue shown below was collected and the weight of the tissue was measured. The significant difference was tested using a multiple comparison test by the Turkey-Kramer method (different letters indicate significant difference with P<0.05).
Serum from the blood obtained by the anatomy described above was subjected to componential analysis using commercially available measurement kits described below.
Adiponectin: adiponectin ELISA kit (Otsuka Pharmaceutical Co., Ltd.)
Insulin: insulin measurement kit (Morinaga Institute of Biological Science, Inc.)
Glucose: N-Assay Glu-UL (Nittobo Medical Co., Ltd.)
Total cholesterol: N-Assay L T-CHO-H (Nittobo Medical Co., Ltd.)
Triglyceride: N-Assay TG-H (Nittobo Medical Co., Ltd.)
NEFA: NEFA-HA Test Wako (Wako Pure Chemical Industries, Ltd.)

[5] = PPARγ activator 1 μM added to SIS3 10 μM (7 days) and norepinephrine 1 μM (2 hours), FIG. 6
[6] = Smad3 inhibitor 10 μM with rosiglitazone 10 μM (7 days) and norepinephrine 1 μM (2 hours), FIG. 8
[7] = β3 adrenaline receptor activator 1 μM for 2 hours added to rosiglitazone 1 μM and SIS3 10 μM (7 days), FIG. 9

CCc1ccc(CCOc2ccc(CC3SC(=O)NC3=O)cc2)nc1 (stereo not drawn) [pioglitazone]
expression level of UCP-1 [1, 5]: synergistically increased

CN(CCOc1ccc(CC2SC(=O)NC2=O)cc1)c1ccccn1 (stereo not drawn) [rosiglitazone]
expression level of UCP-1 [1, 5]: synergistically increased

COc1cc2c(cc1OC)CN(C(=O)/C=C/c1c(-c3ccccc3)n(C)c3ncccc13)CC2 [SIS3, 6,7-dimethoxy-2-((2E)-3-(1-methyl-2-phenyl-1H-pyrrolo[2,3-b]pyridin-3-yl-prop-2-enoyl))-1,2,3,4-tetrahydroisoquinoline]
expression level of UCP-1 [1, 6]: synergistically increased

NC[C@H](O)c1ccc(O)c(O)c1 [norepinephrine]
expression level of UCP-1 [1, 7]: synergistically increased

CCCCC[C@H](O)CC(=O)CCc1ccc(O)c(OC)c1 [gingerol]
TGR5-activating action [2]: confirmed to have a TGR5-activating action

O=c1cc(-c2ccc(O)c(O)c2)oc2cc(O)cc(O)c12 [luteolin]
TGF-β stimulation-responsive Smad3 hyperphosphorylation (Smad3-inhibiting action) [3]: confirmed to have a Smad3-inhibiting action

C[C@H](Cc1ccc2c(c1)OC(C(=O)[O-])(C(=O)[O-])O2)NC[C@H](O)c1cccc(Cl)c1.[Na+].[Na+] [CL316,243]
Glucose [4]: 274.9 ± 19.6^a mg/dl
Insunlin [4]: 3.05 ± 0.30^ab ng/ml
NEFA [4]: 0.92 ± 0.09^a mEq/l
Total cholesterol [4]: 151.1 ± 4.8^ac mg/dl
Triglyceride [4]: 77.2 ± 7.8^ab mg/dl
Adiponectin ([4]; Rosi 5, SIS3 5, CL316,243 0.1 mg/kg body weight/day): 36.9 ± 6.9^ab μg/ml

Nc1nc(CC(=O)Nc2ccc(CCNC[C@H](O)c3ccccc3)cc2)cs1 [mirabegron]
expression level of UCP-1 [1, 7]: synergistically increased

C[C@H](CCC(=O)O)[C@H]1CC[C@H]2[C@@H]3[C@H](O)C[C@@H]4C[C@H](O)CC[C@]4(C)[C@H]3C[C@H](O)[C@]12C [cholic acid]
TGR5-activating action [2]: confirmed to have a TGR5-activating action

NC(=O)c1ccc(-c2nc(-c3ccc4c(c3)OCO4)c(-c3ccccn3)[nH]2)cc1 [SB431542]
expression level of UCP-1 [1, 6]: synergistically increased
